Assay results published in US12553892B2, “Assays for antimicrobial activity and applications thereof” (PRESIDENT AND FELLOWS OF HARVARD COLLEGE, priority 2013, dated 2026).

Assays:
E. cloacae = assay: Antibiotic treatment of E. cloacae tracked by FcMBL ELLecSA detection of MAMPs; settings: for susceptibility of E. cloacae to the antibiotic: as stated for the test pathogen; for treatment efficacy from increase or spike in ELLecSA signal over time: 24-hr time course, E. cloacae 10e8 CFU/ml, 1 mg/ml antibiotic
[1] = test system: clinical isolate of E. coli; assay: Antibiotic treatment of clinical isolate of E. coli, MAMP detection by ELLecSA; format: cell-based; settings: FIG. 16D strain
Description: FIGS. 16A-16E show lysing microbes by antibiotic treatment to increase MAMPs for FcMBL-coated bead capture and ELLecSA detection. In FIG. 16A, FcMBL coated beads were used to detect the presence of MAMPs from a clinical isolate of Enterobacter cloacae after 4 hour treatments of cefepime and meropenem. Detection of MAMPs was done by ELLecSA using rhMBL-hrp. In FIG. 16B, FcMBL coated beads were used to detect the presence of MAMPs from a clinical isolate of Salmonella typhimurium after 4 hour treatments of cefepime. Detection of MAMPs was done by ELLecSA using rhMBL-hrp. In FIG. 16C, FcMBL coated beads were used to detect the presence of MAMPs from a clinical isolate of E. coli after 4 hour treatment of cefepime and amikacin. Detection of MAMPs was done by ELLecSA using rhMBL-hrp. In FIG. 16D, FcMBL coated beads were used to detect the presence of MAMPs from a clinical isolate of E. coli after 4 hour treatment of cefepime and amikacin. Detection of MAMP's was done by ELLecSA using rhMBL-hrp. […]. Time course antibiotics were administered. Optimal MAMP detection occurred at 4 hours with 100 ug/mL cefepime.

E. coli ATCC 8739 = assay: In vivo antibiotic efficacy by ELLecSA in rats infected intraperitoneally; settings: for ELLecSA levels, increase over baseline (no antibiotic): rats, 2e9 CFU i.p., antibiotic 100 μg/kg at 4 hours, terminal blood draw 8 hours after infection; for ELLecSA signal in treated group vs sham treatment: wistar rats, treatment four hours after infection, blood draw after another four hours
[2] = test system: amp-C mutant Enterobacter cloacae; assay: Time course antibiotic treatment of amp-C mutant Enterobacter cloacae, MAMP detection by ELLecSA; format: cell-based; settings: 100 μg/mL antibiotic

CC(=O)OCC1=C(C(=O)O)N2C(=O)[C@@H](NC(=O)Cc3cccs3)[C@H]2SC1 [Cefalotin]
susceptibility of E. cloacae to the antibiotic (E. cloacae): naturally resistant

NCC[C@H](O)C(=O)N[C@@H]1C[C@H](N)[C@@H](O[C@H]2O[C@H](CN)[C@@H](O)[C@H](O)[C@H]2O)[C@H](O)[C@H]1O[C@H]1O[C@H](CO)[C@@H](O)[C@H](N)[C@H]1O [amikacin]
susceptibility of the E. coli strain [1]: sensitive

Cc1nnc(SCC2=C(C(=O)O)N3C(=O)[C@@H](NC(=O)Cn4cnnn4)[C@H]3SC2)s1 [cefazolin]
treatment efficacy from increase or spike in ELLecSA signal over time (E. cloacae): ineffective | susceptibility of E. cloacae to the antibiotic (E. cloacae): resistant

CO/N=C(\C(=O)N[C@@H]1C(=O)N2C(C(=O)[O-])=C(C[N+]3(C)CCCC3)CS[C@H]12)c1csc(N)n1 [cefepime]
susceptibility of the E. coli strain [1]: intermediate susceptibility | ELLecSA levels, increase over baseline (no antibiotic) (E. coli ATCC 8739): six | ELLecSA signal in treated group vs sham treatment (E. coli ATCC 8739): significant increase

CC(C)(O/N=C(\C(=O)N[C@@H]1C(=O)N2C(C(=O)[O-])=C(C[n+]3ccccc3)CS[C@H]12)c1csc(N)n1)C(=O)O [ceftazidime]
susceptibility of amp-C mutant E. cloacae [2]: resistant

CO/N=C(\C(=O)N[C@@H]1C(=O)N2C(C(=O)O)=C(CSc3nc(=O)c(=O)[nH]n3C)CS[C@H]12)c1csc(N)n1 [ceftriaxone]
treatment efficacy from increase or spike in ELLecSA signal over time (E. cloacae): effective | time to MAMP release after addition of the active antibiotic (E. cloacae; about 5e7 CFU Enterobacter cloacae): ≤ 30 min | susceptibility of E. cloacae to the antibiotic (E. cloacae): susceptible

C[C@@H](O)[C@H]1C(=O)N2C(C(=O)O)=C(S[C@@H]3CN[C@H](C(=O)N(C)C)C3)[C@H](C)[C@H]12 [meropenem]
ELLecSA levels, increase over baseline (no antibiotic) (E. coli ATCC 8739): 2 fold | ELLecSA signal in treated group vs sham treatment (E. coli ATCC 8739): significant increase
